Laboratory results reported in PMC9909341, “TLQP-21 is a low potency partial C3aR activator on human primary macrophages” (Frontiers in Immunology, 2023).

Legend:
[1] = tested on: C3aR-deficient BMDMs; assay: phospho-ERK1/2 assay in C3aR-deficient BMDMs; type: cell-based, mouse; conditions: 10 min stimulation; n = 3 mice
Method: Mouse bone marrow-derived macrophages (BMDMs) were obtained and cultured as previously described ([20], [21]). All experiments using mice were approved by the University of Queensland animal ethics committee. Wild-type and C3aR^-/- mice on a C57BL/6J genetic background (n = 3) were sacrificed by cervical dislocation. The tibia was removed and sterilised. Upon removal of both epiphyses, bone marrow cells were harvested by flushing the central cavity with complete RPMI-1640 medium using a 10 ml syringe attached to a 25-gauge needle. Cells were then cultured in complete RPMI-1640 medium (containing 10 % FBS, 100 IU/ml penicillin, 100 μg/ml streptomycin) supplemented with 100 ng/ml recombinant human macrophage colony stimulating factor on 10 mm square dishes. […]
(§1) Ligand-induced ERK1/2 phosphorylation was assessed using the AlphaLISA Surefire Ultra p-ERK1/2 (Thr202/Tyr204) kit (PerkinElmer, Melbourne, Australia) following the manufacturer’s protocol as previously described ([18], [20], [22]). […] On a Tecan Spark 20M (Tecan, Männedorf, Switzerland), the plate was measured using standard AlphaLISA settings.
Figure 4 TLQP-21 triggers ERK signalling through C3aR in murine bone marrow-derive macrophages. […] The phospho-ERK1/2 content in the cell lysate was measured and normalised to the medium only-treated levels before being combined. […]

[2] = tested on: HMDMs; assay: homologous desensitisation control in HMDMs; type: cell-based, human; conditions: pre-treatment 10 nM hC3a, 10 μM hTLQP-21 or mTLQP-21 for 30 min, then same ligand 10 min
Description: HMDMs were generated and cultured as previously described ([20]), with experiments approved by The University of Queensland Human Research Ethics Committee. Briefly, human buffy coat blood from anonymous healthy donors was obtained through the Australian Red Cross Blood Service (Brisbane, Australia). Human CD14+ monocytes were isolated from blood using Lymphoprep density centrifugation (STEMCELL, Melbourne, Australia) followed by CD14+ MACS magnetic bead separation (Miltenyi Biotec, Sydney, Australia). […]
as §1
Figure 3 Agonistic and antagonistic activities of hTLQP-21 and mTLQP-21 in human monocyte-derived macrophages. […] The phospho-ERK1/2 content in the cell lysate was measured and normalised to the maximum hC3a/hC5a-induced levels before being combined. […]

[3] = tested on: BMDM (murine C3aR); type: cell-based, mouse
Method: Mouse bone marrow-derived macrophages (BMDMs) were obtained and cultured as previously described ([20], [21]). All experiments using mice were approved by the University of Queensland animal ethics committee. Wild-type and C3aR^-/- mice on a C57BL/6J genetic background (n = 3) were sacrificed by cervical dislocation. The tibia was removed and sterilised. Upon removal of both epiphyses, bone marrow cells were harvested by flushing the central cavity with complete RPMI-1640 medium using a 10 ml syringe attached to a 25-gauge needle. Cells were then cultured in complete RPMI-1640 medium (containing 10 % FBS, 100 IU/ml penicillin, 100 μg/ml streptomycin) supplemented with 100 ng/ml recombinant human macrophage colony stimulating factor on 10 mm square dishes. Mature adherent macrophages for assays were harvested on day 6-7 by gentle scraping.
Ligand-induced ERK1/2 phosphorylation was assessed using the AlphaLISA Surefire Ultra p-ERK1/2 (Thr202/Tyr204) kit (PerkinElmer, Melbourne, Australia) following the manufacturer’s protocol as previously described ([18], [20], [22]). Briefly, CHO-K1, CHO-C3aR, CHO-C5aR1, HMDMs (50,000/well) or BMDMs (90,000/well) were seeded in tissue culture-treated 96-well plates (Corning, Corning, USA) for 24 h and serum-starved overnight. All ligand dilutions were prepared in serum-free medium (SFM) containing 0.1% BSA. For inhibition assays, cells were pre-treated with the following ligands (5 µM SB290157, or respective concentrations of hC3a, mC3a, hC5a, hTLQP-21, and mTLQP-21) or the solvent-only control for 30 min before agonist (hC3a, hTLQP-21 and mTLQP-21) addition. The concentration and identity of the ligands are described in detail in the figure legends. For stimulation, cells were treated with ligands at the indicated concentrations for 10 min at RT and then immediately lysed using AlphaLISA lysis buffer on a microplate shaker (450 rpm, 10 min). For the detection of phospho-ERK1/2 content, cell lysate (5 μL/well) was transferred to a 384-well ProxiPlate (PerkinElmer, Melbourne, Australia) and added to the donor and acceptor reaction mix (2.5 μL/well, respectively), followed by a 2-h incubation at RT in the dark. On a Tecan Spark 20M (Tecan, Männedorf, Switzerland), the plate was measured using standard AlphaLISA settings.
All experiments were conducted in triplicates and repeated on three separate occasions unless otherwise specified. Data was analysed using GraphPad software (Prism 9.1). Data from each individual repeat was normalised accordingly (as specified in the figure legends) before being combined and expressed as mean ± standard error of the mean (S.E.M.) unless otherwise described. For all dose-response studies, logarithmic concentration-response curves were plotted using combined data and analysed to determine the respective potency values. Statistical analysis was performed using two-way ANOVA with Dunnett’s post hoc analysis. Donor-matched comparisons were made for HMDM experiments. Differences were deemed significant when p < 0.05.
Figure 4 TLQP-21 triggers ERK signalling through C3aR in murine bone marrow-derive macrophages. BMDMs (90,000/well) from wildtype mice (A) or with C3aR knockout mice (B), were serum-starved overnight and then stimulated with respective ligands at the indicated concentrations for 10 min. The phospho-ERK1/2 content in the cell lysate was measured and normalised to the medium only-treated levels before being combined. Data represent mean ± S.E.M. of triplicate measurements using cells from 3 mice (n = 3).

Substance | ERK signalling in C3aR-deficient BMDMs [1] | homologous desensitisation of ERK activity [2] | % C3a activity ± SE, BMDM ([3]; relative to mC3a, wild-type BMDMs) | logEC50 ± SE (pERK1/2), BMDM ([3]; wild-type BMDMs, 10 min stimulation at RT, C3a is recombinant mouse C3a) | EC50 ([3]; wild-type C57BL/6J BMDMs, 90,000/well, 10 min stimulation at RT, AlphaLISA p-ERK1/2, n = 3 mice, C3a is recombinant mouse C3a, read-out: EC50 (pERK1/2), BMDM)
hC3a: purified (plasma-derived) human C3a, purchased from Merck | Neither hC3a, nor the TLQP-21 peptides caused any significant ERK signalling activity in C3aR-deficient cells | significantly dampened the subsequent ERK activity triggered by these ligands |  |  | 
C3a: Table 1 label: human C3a in CHO-C3aR and HMDM, recombinant mouse C3a in BMDM |  |  | 100 ± 4.1% | -8.1 ± 0.1 | 8.4 nM
